Data set [1] relates to PBMCs. The data set can be described thus: PBMC Acute Infection, cytotoxicity (CC50/CC90). Type of data set: cell-based. The method, then: PHA-stimulated cells from at least two normal donors were pooled (i.e. mixed together), diluted in fresh medium to a final concentration of 1×10^6 cells/mL, and plated in the interior wells of a 96-well round bottom microplate at 50 μL/well (5×10^4 cells/well). Pooling of mononuclear cells from more than one donor was used to minimize the variability observed between individual donors in quantitative and qualitative differences in HIV infection and overall response to the PHA and IL-2 of primary lymphocyte populations. Each plate contained virus control wells (cells plus virus) and experimental wells (drug plus cells plus virus) of either 00KE_KER2008 (Subtype A), IIIB (Subtype B), or 98US_MSC5016 (Subtype C). Test drug dilutions were prepared at a 2×concentration and 100 μL of each concentration was placed in appropriate wells. Fifty μL of a predetermined dilution of virus stock was placed in each test well (final MOI≅0.1). After this period, cell-free supernatant samples were collected for analysis of reverse transcriptase (RT) activity with an RT assay. […] In the Table below SI50=CC50/EC50 and SI90=CC90/EC90.

Data set [2] has as its target T1, HIV-1 protease (Human immunodeficiency virus type 1 group M subtype B, UniProt P12497).
T1 construct: A 50 μM stock HIV-1 protease (received from Sook-kyung Lee (UNC)); gift from Sook-kyung Lee (UNC)
As to the kind of experiment: protease assay (Abz-HIV Protease Substrate FRET). It is filed as biochemical. The method, then:
For the assays listed in Table I, the integrase assay was conducted using the XpressBio HIV-1 Integrase Assay Kit according to the manufacture's protocol. The protease assay was conducted with the Anthranilyl (Abz)-HIV Protease Substrate (Bachem H-2992), a hexapeptide FRET substrate derived from the p24/p15 cleavage site of the viral gag-pol poly-protein, which allows the screening of potential HIV protease inhibitors. 1 mM Abz-Substrate was diluted with Assay Buffer to a working stock of 20 μM. A 50 μM stock HIV-1 protease (received from Sook-kyung Lee (UNC)) was diluted with Assay Buffer (50 mM HEPES, pH 6.8, 150 mM NaCl, and 1% DMSO) to a working stock of 100 nM. 2 μl 100 nM HIV-1 Protease along with 2 uL 20 μM Abz Substrate was added into each well and incubated at room temperature (avoiding light) for 1 hour before being read on an Envision plate reader (Perkin Elmer) excitation at 280 nm, emission at >435 nm. The reverse transcriptase assay utilized purified recombinant HIV (pNL4-3) heterodimeric (p66/p51) Reverse Transcriptase (RT) that was purchased from a commercially available source. The assay was performed in 96-well filter plate, where RT activity was determined by the incorporation of radiolabeled deoxyribonucleotides into the newly synthesized DNA strand. The RT reaction mixture contained in vitro transcribed viral RNA derived from the HIV-1NL4-3 5′-LTR region (position 454 to 652) and primer that is complementary to the primer binding site (PBS, nucleotide residues nucleotides 636 to 652), radiolabeled deoxyribonucleotide, dNTPs and reverse transcriptase. Briefly, the reaction was carried out in a volume of 50 μl containing 50 mM Tris HCl, pH 7.8, 50 mM KCl, 5 mM MgCl2, 1 mM DTT, 50 μM each of dATP, dCTP, dGTP, 50 nM dTTP, 1 μCi of [^3H] dTTP (70-90 Ci/mM) and 5 nM template/primer. The reaction was initiated by the addition of 10 nM RT. For compound screening, serially diluted test articles were added to the reaction followed by the addition of RT. The reaction mixture was incubated at 37° C. for 1 h, and then quenched by the addition of ice-cold trichloroacetic acid (TCA) to the final concentration of 10%. The plate was incubated at 4° C. for 1 h to precipitate the synthesized DNA, then rinsed 3-times with 10% TCA and 1 time with 70% ethanol. After addition of 25 μl scintillation fluid to completely dried wells, radioactivity is counted by MicroBeta scintillation counter. The reduction of radioactivity represents the potency of compound inhibition.

Each structure is given as a SMILES string.

In general, IC50 refers to the concentration that gives 50% inhibition. Consider `CCc1c2c(nc3ccc(N)cc13)-c1cc3c(c(=O)n1C2)CNC(=O)[C@]3(O)CC` [Compound O5-SN, (S)-9-Amino-4,11-diethyl-4-hydroxy-1,2-dihydroquinolino[2′,3′:3,4]pyrrolo[1,2-b][2,7]naphthyridine-3,14(4H,12H)-dione], for which, in data set [1] (row of isolate 98US_MSC5016, subtype C), the CC90 was above 100 µM. Moreover, the CC90 in data set [1] (row of isolate IIIB, subtype B) was above 100 µM. In data set [2], the IC50 is above 100 µM and the “activity against HIV protease (result in words)” value is “inactive”.
Take `CCc1c2c(nc3ccc(O)cc13)-c1cc3c(c(=O)n1C2)CNC(=O)[C@]3(O)CC` [SN38-L, (S)-4,11-Diethyl-4,9-dihydroxy-1,2-dihydroquinolino[2′,3′:3,4]pyrrolo[1,2-b][2,7]naphthyridine-3,14(4H,12H)-dione]: in data set [2], the IC50 is above 100 µM and the “activity against HIV protease (result in words)” value is “inactive”.
